# Where two headings read alike, the source gives them in different places.
# What was measured:
# [1] = Electrophysiological activity in animals: atrial refractoriness, metabolite activity; type: in vivo; settings: in vivo
# [2] = molecular target: P-glycoprotein (P-gp) (Homo sapiens, UniProt P08183); settings: cited from earlier work
# [3] = cited from earlier work
# [4] = test system: AF patients; settings: followed for a year, versus placebo; cited from earlier work
# [5] = 2 years; 8 for the placebo; cited from earlier work
# [6] = Phase 2 clinical trial of tecarfarin: time in therapeutic INR range versus warfarin; type: in vivo, human; settings: for proportion of time with INR below 1.5 / proportion of time with INR between 1.5 and 1.9: human, in vivo; for time in therapeutic range (TTR), INR between 2.0 and 3.0: same patient population, previously on warfarin
# [7] = test system: patients with AF; settings: cited from earlier work
# P-glycoprotein (P-gp), sequence (P08183 whole entry): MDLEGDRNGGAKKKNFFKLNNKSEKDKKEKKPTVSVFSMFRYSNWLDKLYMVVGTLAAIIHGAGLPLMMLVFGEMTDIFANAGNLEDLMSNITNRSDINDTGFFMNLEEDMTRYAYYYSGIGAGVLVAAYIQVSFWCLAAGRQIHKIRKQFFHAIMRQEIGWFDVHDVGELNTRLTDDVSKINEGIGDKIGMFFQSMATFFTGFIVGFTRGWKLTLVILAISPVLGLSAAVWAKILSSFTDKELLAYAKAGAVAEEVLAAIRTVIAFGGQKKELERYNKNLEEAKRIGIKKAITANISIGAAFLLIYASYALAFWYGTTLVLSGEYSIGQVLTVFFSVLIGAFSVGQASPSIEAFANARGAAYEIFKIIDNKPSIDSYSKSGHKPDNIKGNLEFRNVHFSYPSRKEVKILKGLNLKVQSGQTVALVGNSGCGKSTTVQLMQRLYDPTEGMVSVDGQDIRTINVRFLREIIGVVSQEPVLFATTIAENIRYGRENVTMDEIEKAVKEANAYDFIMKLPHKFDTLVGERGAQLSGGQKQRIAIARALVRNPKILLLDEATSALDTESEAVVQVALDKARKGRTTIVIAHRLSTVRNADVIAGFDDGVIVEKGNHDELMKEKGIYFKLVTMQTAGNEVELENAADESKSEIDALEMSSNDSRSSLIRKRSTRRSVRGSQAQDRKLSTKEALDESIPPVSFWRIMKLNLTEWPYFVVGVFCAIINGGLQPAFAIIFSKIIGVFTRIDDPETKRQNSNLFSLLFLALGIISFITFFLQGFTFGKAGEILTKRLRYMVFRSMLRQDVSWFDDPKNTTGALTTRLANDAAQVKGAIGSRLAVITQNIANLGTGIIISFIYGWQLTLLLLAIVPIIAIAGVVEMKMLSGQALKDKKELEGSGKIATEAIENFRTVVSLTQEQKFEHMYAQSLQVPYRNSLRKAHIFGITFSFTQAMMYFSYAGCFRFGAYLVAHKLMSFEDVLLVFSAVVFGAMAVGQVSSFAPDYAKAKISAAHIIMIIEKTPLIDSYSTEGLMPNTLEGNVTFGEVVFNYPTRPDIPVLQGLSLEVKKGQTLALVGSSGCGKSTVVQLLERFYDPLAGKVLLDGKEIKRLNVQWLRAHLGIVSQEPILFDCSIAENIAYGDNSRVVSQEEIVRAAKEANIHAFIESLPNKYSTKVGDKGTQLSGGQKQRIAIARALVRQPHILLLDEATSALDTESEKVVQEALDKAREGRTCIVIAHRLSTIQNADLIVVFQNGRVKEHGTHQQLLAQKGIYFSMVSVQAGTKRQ
compound,measurement,setting,value
CCN(CC)CCOc1c(I)cc(C(=O)c2c(CC(=O)O)oc3ccccc23)cc1I [ATI-2000],electrophysiological activity,[1],electrophysiologically inactive
[H]/N=C(/N)c1ccc(NCc2nc3cc(C(=O)N(CCC(=O)O)c4ccccn4)ccc3n2C)cc1 [dabigatran],P-gp substrate status,[2],substrate
same,major bleeding versus warfarin,[3]; 110 mg,superior
same,major bleeding versus warfarin,[3]; 150 mg,noninferior
CCCCc1oc2ccc(NS(C)(=O)=O)cc2c1C(=O)c1ccc(OCCCN(CCCC)CCCC)cc1 [dronedarone],time to first recurrence of AF (TTFR),[4],significant increase in TTFR compared to placebo
same,number of strokes in patients with only AF or atrial flutter on all ECGs,[5],2
C=C[C@H]1C[N@@]2CC[C@H]1C[C@@H]2[C@@H](O)c1ccnc2ccc(OC)cc12 [quinidine],P-gp inhibition,[2],particularly potent P-gp inhibitor
CC(OC(=O)c1ccc(Cc2c(O)c3ccccc3oc2=O)cc1)(C(F)(F)F)C(F)(F)F [tecarfarin],proportion of time with INR below 1.5,[6],1.2%
same,proportion of time with INR between 1.5 and 1.9,[6],14.2%
same,"time in therapeutic range (TTR), INR between 2.0 and 3.0",[6],71.5%
CC(=O)CC(c1ccccc1)c1c(O)c2ccccc2oc1=O (centres unmarked) [warfarin],proportion of time with INR below 1.5,[6],3.9%
same,proportion of time with INR between 1.5 and 1.9,[6],22.4%
same,"time in therapeutic range (TTR), INR between 2.0 and 3.0",[6],59.3%
same,strokes prevented,[7],64%
